In paper PMC8515607 (ACS Omega, 2021):
Several values for one entry are separate records, joined by “and”; a condition that tells them apart may be missing. Equal values may be shown once. Read-outs that look alike come from different tables or passages of the source.

What was measured:
A549 = assay: cells; format: cell-based, human; settings: for A549 SI: selectivity index = IC50 BALB/3T3 / IC50 A549
Text: (§1) The A549 and MCF7 cell lines were purchased from the European Collection of Authenticated Cell Cultures (ECACC, Salisbury, U.K., 86012804 and 86012803). The LoVo cell line was purchased from the American Type Culture Collection (CCL-229, ATCC, Manassas, VA), and LoVo/DX by courtesy of Prof. E. Borowski (Technical University of Gdańsk, Gdańsk, Poland). The BALB/3T3 cell line was purchased from the American Type Culture Collection (CCL-163, ATCC, Manassas, VA). All of the cell lines are maintained in the Institute of Immunology and Experimental Therapy (IIET), Wroclaw, Poland.
(§2) A549 cells were cultured in a mixture of OptiMEM and Roswell Park Memorial Institute (RPMI) 1640 (1:1) medium (IIET, Wroclaw, Poland), supplemented with 10% fetal bovine serum HyClone (GE Healthcare) and 2 mM L-glutamine (Sigma-Aldrich, Germany). MCF7 cells were cultured in a mixture of Eagle’s medium (IIET, Wroclaw, Poland), supplemented with 10% fetal bovine serum, 2 mM L-glutamine, and insulin (Sigma-Aldrich, Germany). LoVo and LoVo/DX cells were cultured in F12K medium (Corning), supplemented with 10% fetal bovine serum HyClone (GE Healthcare) and 0.1 μg/mL doxorubicin (Accord) for LoVo/DX. BALB/3T3 fibroblasts were cultured in Dulbecco’s medium (Gibco), supplemented with 10% fetal bovine serum (GE Healthcare) and 2 mM L-glutamine (Sigma-Aldrich, Germany). All culture media contained antibiotics: 100 U/mL penicillin (Polfa-Tarchomin, Poland) and 0.1 mg/mL streptomycin (Sigma-Aldrich, Germany). All cell lines were cultured during entire experiment in humid atmosphere at 37 °C and 5% CO2.
(§3) All cell lines were exposed to each tested agent at different concentrations in the range 100–0.00001 μg/mL for 72 h. The cells were also exposed to the reference drug cisplatin (Teva Pharmaceuticals, Poland) and doxorubicin (Accord Healthcare Limited, U.K.). Additionally, all cell lines were exposed to dimethyl sulfoxide (DMSO) (solvent used for tested compounds) (POCh, Poland) at concentrations corresponding to those present in tested agents dilutions. After 72 h, sulforhodamine B (SRB) assay was performed.[57]
(§4) After 72 h of incubation with the tested compounds, the cells were fixed in situ by gently adding cold 50% trichloroacetic acid (TCA) (POCh, Poland) and were incubated at room temperature for 1 h. Then, the wells were washed four times with water and air-dried. Next, 0.1% solution of sulforhodamine B (Sigma-Aldrich, Germany) in 1% acetic acid (POCh, Poland) was added to each well and the plates were incubated at room temperature for 0.5 h. After incubation time, unbound dye was removed by washing plates four times with 1% acetic acid, whereas stain bound to cells was solubilized with 10 mM Tris base (Sigma-Aldrich, Germany). Absorbance of each solution was read at Synergy H4 Hybrid Multi-Mode Microplate Reader (BioTek Instruments) at the 540 nm wavelength.
(§5) IC50 values were calculated in Excel sheet using formulas adapted by Mateusz Psurski fromCheburator 0.4, Dmitry Nevozhay software (version 1.2.0 software by Dmitry Nevozhay, 2004–2014, http://www.cheburator.nevozhay.com, freely available) for each experiment.[58] Compounds at each concentration were tested in triplicate in a single experiment, and each experiment was repeated at least three times independently.

LoVo/DX = assay: cells; format: cell-based, human; settings: for LoVo/DX RI: resistance index = IC50 LoVo/DX / IC50 LoVo; for LoVo/DX SI: selectivity index = IC50 BALB/3T3 / IC50 LoVo/DX
Text: as §1, §2, §3, §4, §5

LoVo = assay: cells; format: cell-based, human; settings: for LoVo SI: selectivity index = IC50 BALB/3T3 / IC50 LoVo
Text: as §1, §2, §3, §4, §5

MCF-7 = assay: cells; format: cell-based, human; settings: for MCF-7 SI: selectivity index = IC50 BALB/3T3 / IC50 MCF-7
Text: as §1, §2, §3, §4, §5

BALB/3T3 = assay: In vitro antiproliferative activity, SRB assay, normal fibroblasts BALB/3T3; format: cell-based; settings: 72 h, mean ± SD
Text: as §1, §2, §3, §4, §5

[1] = Homo sapiens, A549, 72 h, read-out: A549 IC50 (nM), 72 h exposure, SRB, mean ± SD
[2] = Homo sapiens, LoVo/DX, 72 h, read-out: LoVo/DX IC50 (nM), 72 h exposure, SRB, mean ± SD
[3] = Homo sapiens, LoVo, 72 h, read-out: LoVo IC50 (nM)
[4] = Homo sapiens, MCF7, 72 h, read-out: MCF-7 IC50 (nM)
[5] = Mus musculus, BALB/3T3, normal murine embryonic fibroblasts

Row | Compound | IC50 (A549; [1]) [nM] | A549 SI (A549) | IC50 (LoVo/DX; [2]) [nM] | LoVo/DX RI (LoVo/DX) | LoVo/DX SI (LoVo/DX) | IC50 (LoVo; [3]) [nM] | LoVo SI (LoVo) | IC50 (MCF-7; [4]) [nM] | MCF-7 SI (MCF-7) | IC50 (BALB/3T3; [5]) [nM] | IC50 (A549; read-out: A549 IC50, 72 h exposure, SRB, mean ± SD) [nM] | IC50 (A549; 72 h exposure, SRB, mean ± SD, read-out: A549 IC50) [nM] | IC50 (LoVo/DX; 72 h exposure, SRB, mean ± SD, read-out: LoVo/DX IC50) [nM] | IC50 (LoVo; 72 h exposure, SRB, mean ± SD, read-out: LoVo IC50) [nM] | IC50 (MCF-7; 72 h exposure, SRB, mean ± SD, read-out: MCF-7 IC50) [nM] | IC50 (BALB/3T3; normal murine embryonic fibroblasts) [nM] | IC50 (A549; Homo sapiens, A549, 72 h exposure, SRB, mean ± SD, read-out: A549 IC50) [nM] | IC50 (LoVo/DX; Homo sapiens, LoVo/DX, 72 h exposure, SRB, mean ± SD, read-out: LoVo/DX IC50) [nM] | IC50 (LoVo; Homo sapiens, LoVo, 72 h exposure, SRB, mean ± SD, read-out: LoVo IC50) [nM] | IC50 (MCF-7; Homo sapiens, MCF7, 72 h exposure, SRB, mean ± SD, read-out: MCF-7 IC50) [nM]
1 | CNc1ccc2c(cc1=O)[C@@H](n1cc(CNC(=O)CCNC(=O)OC(C)(C)C)nn1)CCc1cc(OC)c(OC)c(OC)c1-2 [Compound 34] | 26 ± 11 | 10.4 | 17000 ± 1600 | 510 | <0.1 | 33 ± 10 | 8.2 | 10 ± 2.1 | 27.0 | 270 ± 67 |  |  |  |  |  |  |  |  |  | 
2 | CNc1ccc2c(cc1=O)[C@@H](n1cc(CNC(=O)c3ccncc3)nn1)CCc1cc(OC)c(OC)c(OC)c1-2 [Compound 36] | 22 ± 7.4 | 3.4 | 9100 ± 790 | 700 | <0.1 | 13 ± 3.4 | 5.7 | 12 ± 1.4 | 6.3 and 6.2 | 74 ± 22 |  |  |  |  |  |  |  |  |  | 
3 | CNc1ccc2c(cc1=O)[C@@H](n1cc(CNC(=O)OC)nn1)CCc1cc(OC)c(OC)c(OC)c1-2 [Compound 37] | 7.2 ± 0.7 | 1.9 | 1500 ± 240 | 180 | <0.1 | 8.5 ± 2.3 | 1.6 | 4.7 ± 0.5 | 3.0 | 14 ± 2.4 |  |  |  |  |  |  |  |  |  | 
4 | CCOC(=O)NCc1cn([C@H]2CCc3cc(OC)c(OC)c(OC)c3-c3ccc(NC)c(=O)cc32)nn1 [Compound 38] | 4.8 ± 0.7 | 2.5 | 840 ± 95 | 110 | <0.1 | 7.7 ± 2.9 | 1.6 | 4.2 ± 0.7 | 2.9 | 12 ± 1.6 |  |  |  |  |  |  |  |  |  | 
5 | CNc1ccc2c(cc1=O)[C@@H](n1cc(CNC(=O)OC(C)(C)C)nn1)CCc1cc(OC)c(OC)c(OC)c1-2 [Compound 41] | 5.4 ± 1.5 | 2.0 | 570 ± 120 | 110 | <0.1 | 5.1 ± 0.3 | 2.2 | 3.2 ± 0.6 | 3.4 | 11 ± 0.8 |  |  |  |  |  |  |  |  |  | 
6 | CNc1ccc2c(cc1=O)[C@@H](n1cc(CNC(=O)OCC(Cl)(Cl)Cl)nn1)CCc1cc(OC)c(OC)c(OC)c1-2 [Compound 42] | 1.2 to 1.9 | 1.4 | 470 ± 300 | 120 | <0.1 | 3.8 ± 4.2 | 0.7 | 2.5 ± 1.8 | 1.1 | 2.7 ± 2.4 | 1.9 ± 2.9 |  |  |  |  |  |  |  |  | 
7 | N.N.[Cl][Pt][Cl] [cisplatin, reference compound] |  | 0.9 |  | 0.7 | 1.1 |  | 0.8 |  | 0.8 |  |  | 3500 ± 630 | 3000 ± 800 | 4100 ± 860 | 4400 ± 1200 | 3300 ± 970 |  |  |  | 
8 | COc1cccc2c1C(=O)c1c(O)c3c(c(O)c1C2=O)C[C@@](O)(C(=O)CO)C[C@@H]3O[C@H]1C[C@H](N)[C@H](O)[C@H](C)O1 [doxorubicin, reference compound] |  | 0.1 |  | 110 | <0.1 |  | 0.2 |  | 0.1 | 12 ± 2.3 |  |  |  |  |  |  | 120 ± 100 | 5800 ± 2200 | 52 ± 13 | 82 ± 31
